From US20070027118A1 (priority 2005, published 2007)
pKi: −log10 of the molar value.

Assays:
11β-hsd-1 enzyme [1] = target: T1, 11β-hsd-1 enzyme (Homo sapiens, UniProt P28845); assay: biochemical; details: read-out: % Inh @ 0.1 mM; for inhibition at 100 µM: Table 2, inhibitor 0.1 mM as printed
Summary of the method: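 Human 11β-HSD-1 (5 nM) pre-incubated ≥30 min with inhibitor and 500 μM NADPH in triethanolamine buffer pH 8.0 with NaCl, n-dodecyl β-D-maltoside and β-ME; reaction started with G6P/G6PDH/MgCl2 regenerating system and 200 nM 3H-cortisone, run 60 min, stopped with DMSO. 3H-cortisol and substrate separated by radio-HPLC; percent inhibition from peak areas.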

11β-hsd-1 enzyme [2] = target: T1, 11β-hsd-1 enzyme; assay: biochemical
Procedure: The 11β-hsd-1 assay was performed in a 100 mM Triethanolamine buffer pH 8.0, containing 200 mM NaCl, 0.02% n-dodecyl β-D-maltoside, 5% glycerol, 5 mM β-mercaptoethanol. A typical reaction for the determination of Kiapp values was carried at R.T. in a Corning® u-bottom 96-well plate and is described as follows: 11β-hsd-1 enzyme (5 nM, final concentration) was pre-incubated in the presence of the inhibitor and NADPH (500 μM, final concentration) for at least 30 minutes in the assay buffer. When pre-incubation was completed, the reaction was initiated by adding the regenerating system (2 mM Glucose-6-Phosphate, 1U/mL Glucose-6-Phosphate dehydrogenase, and 6 mM MgCl2, all the concentration reported are final in the assay buffer), and 3H-cortisone (200 nM, final concentration). After 60 minutes, 60 μL of the assay mixture was transferred to a second 96-well plate and mixed with an equal volume of dimethylsulfoxide to stop the reaction. A 15 μL aliquot from the reaction mixture was loaded into a C-18 column (Polaris C18-A, 50×4.6 mm, 5 μ, 180 Angstrom from Varian) connected to an automated High-throughput Liquid Chromatography instrument developed by Cohesive Technologies Inc, of Franklin, Mass. USA, with a β-RAM model 3 Radio-HPLC detector from IN/US, of Tampa, Fla. USA. The substrate and product peaks were separated by using an isocratic mixture of 43:57 methanol to water (v/v) at a flow rate of 1.0 mL/min.
The initial reaction velocities were measured by stopping the reaction at 60 min and by measuring the area of product formation in the absence and the presence of various concentrations of inhibitors. The Kiapp values were determined using the equation for tight-binding inhibitor developed by Morrison, J. F. (Morrison J. F. Biochim BiophysActa. 1969; 185: 269-86).
The radiolabeled [1,2-3H]-cortisone is commercially available from American Radiolabeled Chemicals Inc of St. Louis, Mo. USA. NADPH, Glucose-6-Phosphate, and Glucose-6-Phosphate dehydrogenase were purchased from Sigma®.
(Morrison J. F. Biochim Biophys Acta. 1969; 185: 269-86).

T1 sequence (P28845 whole entry, species assumed): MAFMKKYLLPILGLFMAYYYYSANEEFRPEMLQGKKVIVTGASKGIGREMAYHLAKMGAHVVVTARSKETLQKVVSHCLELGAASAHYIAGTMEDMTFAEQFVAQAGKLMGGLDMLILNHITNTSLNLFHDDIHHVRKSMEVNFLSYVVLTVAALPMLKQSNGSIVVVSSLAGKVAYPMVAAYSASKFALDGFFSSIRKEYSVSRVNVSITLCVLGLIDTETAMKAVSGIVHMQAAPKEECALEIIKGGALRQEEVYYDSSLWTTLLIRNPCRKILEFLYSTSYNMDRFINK

Row | Structure (SMILES) | inhibition (11β-hsd-1 enzyme [1]) | pKi (11β-hsd-1 enzyme [2]) | inhibition at 100 µM (11β-hsd-1 enzyme [1])
1 | CCc1cccc(NS(=O)(=O)N2CCC(CCc3ccccc3)CC2)n1 [Example 104, N-(6-ethylpyridin-2-yl)-4-(2-phenylethyl)piperidine-1-sulfonamide] | 100% | 8.16 | –
2 | CCc1cccc(NS(=O)(=O)N2CCC(C(F)(F)F)CC2)n1 [Example 106, N-(6-ethylpyridin-2-yl)-4-(trifluoromethyl)piperidine-1-sulfonamide] | 100% | 8.15 | –
3 | CCc1cccc(NS(=O)(=O)N2CCC(C3CCN(C(=O)c4ccc(F)cc4)CC3)CC2)n1 [Example 108, N-(6-ethylpyridin-2-yl)-1′-(4-fluorobenzoyl)-44′-bipiperidine-1-sulfonamide] | 89% | 7.22 | –
4 | CCc1cccc(NS(=O)(=O)N2CCC(Oc3ccc(Cl)cc3)CC2)n1 [Example 112, 4-(4-chlorophenoxy)-N-(6-ethylpyridin-2-yl)pipendine-1-sulfonamide] | 100% | 7.74 | –
5 | CCc1cccc(NS(=O)(=O)N2CCC(c3ccccc3F)CC2)n1 [Example 113, N-(6-ethylpyridin-2-yl)-4-(2-fluorophenyl)piperidine-1-sulfonamide] | 89.2% | 7.80 | –
6 | CCc1cccc(NS(=O)(=O)N2CCCC(COc3ccccc3F)C2)n1 (stereo not drawn) [Example 114, N-(6-ethylpyridin-2-yl)-3-[(2-fluorophenoxy)methyl]piperi-dine-1-sulfonamide] | 97.4% | 7.82 | –
7 | CCc1cccc(NS(=O)(=O)N2CCC(Cc3ccccc3)CC2)n1 [Example 116, 4-benzyl-N-(6-ethylpyridin-2-yl)piperidine-1-sulfonamide] | 100% | 7.74 | –
8 | CCc1cccc(NS(=O)(=O)N2CCC(C)CC2)n1 [Example 117, N-(6-ethylpyridin-2-yl)-4-methylpiperidine-1-sulfonamide] | 65.2% | 7.35 | –
9 | CCc1cccc(NS(=O)(=O)N2CCCC(C)C2)n1 (stereo not drawn) [Example 118, N-(6-ethylpyridin-2-yl)-3-methylpiperidine-1-sulfonamide] | 73.6% | 7.23 | –
10 | CCc1cccc(NS(=O)(=O)N2CCC(c3cccc(O)c3)CC2)n1 [Example 122, N-(6-ethylpyridin-2-yl)-4-(3-hydroxyphenyl)piperidine-1-sulfonamide] | 91.7% | 7.96 | –
11 | Cc1cccc(NS(=O)(=O)N2CCCCCCC2)n1 [Example 127, N-(6-methylpyridin-2-yl)azocane-1-sulfonamide] | 91.8% | 7.60 | –
12 | Cc1cccc(NS(=O)(=O)N2CCN(c3ncc(C(F)(F)F)cc3Cl)CC2)n1 [Example 128, 4-[3-chloro-5-(trifluoromethyl)pyridin-2-yl]-N-(6-methylpyridin-2-yl)piperazine-1-sulfonamide] | 100% | 7.89 | –
13 | Cc1cccc(NS(=O)(=O)N2CCN(c3cccc(C)n3)CC2)n1 [Example 131, N4-bis(6-methylpyridin-2-yl)piperazine-1-sulfonamide] | 93.2% | 7.54 | –
14 | Cc1cccc(NS(=O)(=O)N2CCCN(c3ncccn3)CC2)n1 [Example 133, N-(6-methylpyridin-2-yl)-4-pyrimidin-2-yl-14-diazepane-1-sulfonamide] | 71% | 6.48 | –
15 | Cc1cccc(NS(=O)(=O)N2CCCN(C(=O)OCc3ccccc3)CC2)n1 [Example 134, benzyl 4-{[(6-methylpyridin-2-yl)amino]sulfonyl}-14-diazepane-1-carboxylate] | 76.7% | 6.96 | –
16 | COc1ccc2oc(N3CCN(S(=O)(=O)Nc4cccc(C)n4)CC3)nc2c1 [Example 137, 4-(5-methoxy-13-benzoxazol-2-yl)-N-(6-methylpyridin-2-yl)piperazine-1-sulfonamide] | 93.8% | 8.00 | –
17 | Cc1cccc(NS(=O)(=O)N2CCCN(c3ncccc3C#N)CC2)n1 [Example 139, 4-(3-cyanopyridin-2-yl)-N-(6-methylpyridin-2-yl)-14-diazepane-1-sulfonamide] | 86.5% | 7.06 | –
18 | Cc1ccc(N2CCN(S(=O)(=O)Nc3cccc(C)n3)CC2=O)cc1 [Example 140, 4-(4-methylphenyl)-N-(6-methylpyridin-2-yl)-3-oxopiperazine-1-sulfoflamide] | – | 6.60 | 85.7%

Continued by rising pKi (11β-hsd-1 enzyme [2]), values first:

Row | inhibition (11β-hsd-1 enzyme [1]) | pKi (11β-hsd-1 enzyme [2]) | inhibition at 100 µM (11β-hsd-1 enzyme [1]) | Structure (SMILES)
19 | 74.8% | 7.34 | – | Cc1cccc(NS(=O)(=O)N2CCN(c3ncccc3C#N)CC2)n1 [Example 132, 4-(3-cyanopyridin-2-yl)-N-(6-methylpyridin-2-yl)piperazine-1-sulfonamide]
20 | 93.1% | 7.43 | – | CCc1cccc(NS(=O)(=O)N2CCC(c3ccccc3OC)CC2)n1 [Example 119, N-(6-ethylpyridin-2-yl)-4-(2-methoxyphenyl)pipendine-1-sulfonamide]
21 | 75.1% | 7.55 | – | Cc1cccc(NS(=O)(=O)N2CCN(c3ncccn3)CC2)n1 [Example 125, N-(6-methylpyridin-2-yl)-4-pyrimidin-2-ylpiperazine-1-sulfonamide]
22 | 86.6% | 7.55 | – | CCOC(=O)N1CCN(S(=O)(=O)Nc2cccc(C)n2)CC1 [Example 129, ethyl 4-{[(6-methylpyridin-2-yl)amino]sulfonyl}piperazine-1-carboxylate]
23 | 82.2% | 7.62 | – | CCCC1CCCCN1S(=O)(=O)Nc1cccc(CC)n1 (stereo not drawn) [Example 103, N-(6-ethylpyridin-2-yl)-2-propylpiperidine-1-sulfonamide]
24 | 100% | 7.66 | – | CCc1cccc(NS(=O)(=O)N2CCC(Oc3ccccc3)CC2)n1 [Example 123, N-(6-ethylpyridin-2-yl)-4-phenoxypiperidine-1-sulfanamide]
25 | – | 8.08 | 100% | Cc1cccc(NS(=O)(=O)N2CCN(c3nc4ccc(Cl)cc4o3)CC2)n1 [Example 138, 4-(6-chloro-13-benzoxazol-2-yl)-N-(6-methylpyridin-2-yl)piperazine-1-sulfonamide]
26 | 90.1% | 8.09 | – | CCc1cccc(NS(=O)(=O)N2CCCCC2c2ccc(F)cc2)n1 (stereo not drawn) [Example 105, N-(6-ethylpyridin-2-yl)-2-(4-fluorophenyl)piperidine-1-sulfonamide]
27 | – | 8.15 | 88.4% | CCc1cccc(NS(=O)(=O)N2CCC(Cc3ccc(F)cc3)CC2)n1 [Example 124, N-(6-ethylpyridin-2-yl)-4-(4-fluorobenzyl)pipendine-1-sulfonamide]
28 | 93.7% | 8.19 | – | COc1cccc(N2CCN(S(=O)(=O)Nc3cccc(C)n3)CC2)n1 [Example 136, 4-(6-methoxypyridin-2-yl)-N-(6-methylpyridin-2-yl)piperazine-1-sulfonamide]
29 | 100% | 8.46 | – | CCc1cccc(NS(=O)(=O)N2CCC(c3ccccc3)CC2)n1 [Example 121, N-(6-ethylpyridin-2-yl)-4-phenylpiperidine-1-sulfanamide]
30 | 100% | 9.00 | – | CCc1cccc(NS(=O)(=O)N2CCN(c3ncc(-c4ccc(OC)cc4)cn3)CC2)n1 [Example 144, N-(6-ethylpyridin-2-yl)-4-[5-(4-methoxyphenyl)pyrimidin-2-yl]piperazine-1-sulfonamide]
